Data from patent publication US6387389B1 (priority 1996, dated 2002).

Legend:
[1] = test system: dopamine (DA) and serotonin (5-HT) in nucleus accumbens dialysate; assay: In vivo microdialysis with methamphetamine challenge; design: species or system male Sprague-Dawley rats; settings: 0.7 ml/kg im
[2] = test system: food-maintained and cocaine-maintained responding in rhesus monkeys; settings: rhesus monkey, in vivo
[3] = test system: food-maintained and cocaine-maintained responding in rhesus monkeys; settings: comparison value for the shorter-acting drug; cited from earlier work
[4] = test system: dopamine transporter versus serotonin and norepinephrine transporters; settings: Rothman et al. (1993); cited from earlier work
[5] = target: T1, reuptake of tritiated serotonin ([3H]5HT), rat whole brain minus cerebellum synaptosomes (Rattus norvegicus, UniProt P31652); format: biochemical
T1 construct: homogenization of rat caudate (DA) or whole brain minus cerebellum (5HT); from tissue; host or cells: rat whole brain minus cerebellum, synaptosomes

[6] = methamphetamine 1 mg/kg iv four days later, FIG. 4 (percent of baseline)

T1 sequence (P31652 whole entry): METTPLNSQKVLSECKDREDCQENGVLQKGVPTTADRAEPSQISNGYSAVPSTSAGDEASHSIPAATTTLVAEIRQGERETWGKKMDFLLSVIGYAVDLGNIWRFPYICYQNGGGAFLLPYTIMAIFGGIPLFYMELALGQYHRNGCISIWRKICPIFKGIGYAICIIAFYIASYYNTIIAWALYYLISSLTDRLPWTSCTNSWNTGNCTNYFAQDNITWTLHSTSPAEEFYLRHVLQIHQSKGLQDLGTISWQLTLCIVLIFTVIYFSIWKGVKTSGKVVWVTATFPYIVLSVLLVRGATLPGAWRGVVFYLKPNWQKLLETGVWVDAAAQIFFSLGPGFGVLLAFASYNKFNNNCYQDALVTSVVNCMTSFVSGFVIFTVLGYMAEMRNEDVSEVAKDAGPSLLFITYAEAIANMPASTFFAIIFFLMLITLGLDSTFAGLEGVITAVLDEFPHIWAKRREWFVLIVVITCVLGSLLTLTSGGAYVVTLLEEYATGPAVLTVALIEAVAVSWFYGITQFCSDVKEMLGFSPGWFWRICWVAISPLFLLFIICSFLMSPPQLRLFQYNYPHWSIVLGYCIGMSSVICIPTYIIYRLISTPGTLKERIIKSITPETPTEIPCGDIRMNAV

CCCCCCCCCC(=O)OC(CCN1CCN(CCOC(c2ccc(F)cc2)c2ccc(F)cc2)CC1)c1ccccc1 (racemic) [compound 5*, (±)1-[2-Bis-(p-fluorophenyl)methoxy]ethyl]-4-(3-hyroxy-3-phenylpropyl)piperazine decanoate ester]
increase of basal levels of dopamine (DA) ([1]; four days after injection, FIG. 3): two-fold
ability of methamphetamine to increase dopamine levels ([1]; methamphetamine 1 mg/kg iv four days later, FIG. 3 (picogram/fraction)): essentially eliminated
ability of methamphetamine to increase dopamine [1, 6]: blunted
ability of methamphetamine to increase serotonin (5-HT) [1, 6]: blunted
duration of sustained and selective effect on cocaine-maintained responding [2]: almost thirty days

Fc1ccc(C(OCCN2CCN(CCCc3ccccc3)CC2)c2ccc(F)cc2)cc1 [GBR 12909, 1-[2-[bis(4-fluorophenyl)methoxy]ethyl]-4-[3-phenylpropyl]piperazine]
duration of effect on cocaine-maintained responding [3]: 4 to 6 h

c1ccc(CCCN2CCCN(CCOC(c3ccccc3)c3ccccc3)CC2)cc1 [LR1111, 1-[2-(diphenyl-methoxy)-ethyl]-4-(3-phenylpropyl)homopiperazine]
selectivity for the dopamine transporter over the serotonin and norepinephrine transporters [4]: over 4,000 fold

NCCc1c[nH]c2ccc(O)cc12 [[^3H]5HT]
Km [5]: 0.0174 ± 0.0008 µM
